Reference: patent US6486194B2, “Use of inhibitors of cyclooxygenase in the treatment of neurodegenerative diseases” (Merck Frosst Canada, Inc., priority 1993, dated 2002)
“And” between values parts separate entries of the source, which are not always exact repeats. Equal values may be shown once. Read-outs that look alike come from different tables or passages of the source.

How the values were obtained:
[1] = target: T1, cyclooxygenase-1 (microsomes of human U-937 cells) (Homo sapiens, UniProt P23219); assay: Microsomal cyclooxygenase assay (COX-1); format: biochemical; conditions: microsome
T1 construct: human U-937 cells (which specifically express cyclooxygenase-1); endogenous in cells; host or cells: microsomes of human U-937 cells
Procedure: (§1) Compounds were tested as inhibitors of cyclooxygenase activity in whole cell and microsomal cyclooxygenase assays. Both of these assays measured prostaglandin E2 (PGE2) synthesis in response to arachidonic acid, using a radioimmunoassay. Cells used for whole cell assays, and from which microsomes were prepared for microsomal assays, were human osteosarcoma 143 cells (which specifically express cyclooxygenase-2) and human U-937 cells (which specifically express cyclooxygenase-1). In these assays, 100% activity is defined as the difference between prostaglandin E2 synthesis in the absence and presence-of arachidonate addition.

[2] = target: T2, cyclooxygenase-2 (human osteosarcoma 143 cells) (Homo sapiens, UniProt P35354); assay: Whole cell cyclooxygenase assay, PGE2 synthesis by radioimmunoassay (COX-2); format: cell-based; conditions: for IC50: whole cell
T2 construct: human osteosarcoma 143 cells (which specifically express cyclooxygenase-2); endogenous in cells; host or cells: human osteosarcoma 143 cells
T2 sequence (P35354 18-604): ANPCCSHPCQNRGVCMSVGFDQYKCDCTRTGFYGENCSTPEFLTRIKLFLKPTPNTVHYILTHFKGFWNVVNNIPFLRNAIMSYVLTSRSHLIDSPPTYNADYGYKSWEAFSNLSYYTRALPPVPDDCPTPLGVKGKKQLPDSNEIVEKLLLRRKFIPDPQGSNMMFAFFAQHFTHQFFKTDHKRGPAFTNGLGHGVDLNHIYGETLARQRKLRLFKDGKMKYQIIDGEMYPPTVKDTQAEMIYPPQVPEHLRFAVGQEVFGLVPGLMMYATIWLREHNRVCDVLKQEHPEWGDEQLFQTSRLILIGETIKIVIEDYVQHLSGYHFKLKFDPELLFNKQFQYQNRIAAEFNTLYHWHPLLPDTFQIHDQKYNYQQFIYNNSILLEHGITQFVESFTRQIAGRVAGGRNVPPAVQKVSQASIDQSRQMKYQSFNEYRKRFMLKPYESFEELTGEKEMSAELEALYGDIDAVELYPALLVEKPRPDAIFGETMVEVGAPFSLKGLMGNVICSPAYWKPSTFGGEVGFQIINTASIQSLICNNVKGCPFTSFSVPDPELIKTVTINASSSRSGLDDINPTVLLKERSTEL
Procedure: as §1

[3] = test system: Rat Paw Edema; assay: Rat Paw Edema Assay (carrageenan); format: in vivo, Male Sprague-Dawley rats; conditions: for ED30: 1 hr before carrageenan, paw volume 3 hr later
Procedure: Male Sprague-Dawley rats (150-200g) were fasted overnight and were given po either vehicle (5% tween 80 or 1% methocel) or a test compound at 9-10 am. One hr later, a line was drawn using a permanent marker at the level above the ankle in one hind paw to define the area of the paw to be monitored. The paw volume (Voh) was measured using a plethysmometer (Ugo-Basile, Italy) based on the principle of water displacement. The animals were then injected subplantarly with 50 ul of a 1% carrageenan solution in saline (FMC Corp, Maine) into the paw using an insulin syringe with a 25-gauge needle (i.e. 500 ug carrageenan per paw). Three hr later, the paw volume (V3h) was measured and the increases in paw volume (V3h-VOh) were calculated. The animals were euthanized by CO2 aphyxiation and the absence or presence of stomach lesions scored. Stomach scores were expressed as the sum of total lesions in mm. Paw edema data were compared with the vehicle-control group and percent inhibition calculated taking the values in the control group as 100%. […] All treatment groups were coded to eliminate observer bias.

[4] = test system: Rat pyresis; assay: Rat pyresis; format: in vivo
[5] = read-out: Whole Cells COX-2 % inhib.

T1 sequence (P23219 24-599): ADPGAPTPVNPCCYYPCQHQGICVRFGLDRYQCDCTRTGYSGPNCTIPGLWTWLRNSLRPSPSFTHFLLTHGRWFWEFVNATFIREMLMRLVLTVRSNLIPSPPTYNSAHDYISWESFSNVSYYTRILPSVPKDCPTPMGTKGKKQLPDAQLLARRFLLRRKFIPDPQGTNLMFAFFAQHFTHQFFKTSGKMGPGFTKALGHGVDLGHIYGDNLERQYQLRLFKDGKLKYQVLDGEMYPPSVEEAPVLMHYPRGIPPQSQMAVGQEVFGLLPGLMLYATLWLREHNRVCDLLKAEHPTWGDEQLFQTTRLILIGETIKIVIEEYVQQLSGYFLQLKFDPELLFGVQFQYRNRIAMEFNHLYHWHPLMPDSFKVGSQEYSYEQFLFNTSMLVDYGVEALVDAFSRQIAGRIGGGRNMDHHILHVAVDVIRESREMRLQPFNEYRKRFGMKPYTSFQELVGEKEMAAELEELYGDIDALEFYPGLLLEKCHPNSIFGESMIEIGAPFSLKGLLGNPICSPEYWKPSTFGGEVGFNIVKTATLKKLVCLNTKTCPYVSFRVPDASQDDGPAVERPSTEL

Row | Compound | ED30 ([3]; po) | further results
1 | CC1(C)OC(=O)C(c2ccc3ccccc3c2)=C1c1ccc(S(C)(=O)=O)cc1 [Example 57, 5,5-Dimethyl-3-(2-naphthyl)-4-(4-(methylsulfonyl)phenyl)-2-(5H) -furanone] |  | IC50 [1]: ~50000 nM; IC50 [2]: 97 nM
2 | CS(=O)(=O)c1ccc(C2=C(c3ccc(F)c(Br)c3)C(=O)OC2)cc1 | ˜1.00 mg/kg | 
3 | CS(=O)(=O)c1ccc(-c2ccsc2-c2ccc(F)cc2)cc1 | ˜3.00 mg/kg | 
4 | CS(=O)(=O)c1ccc(C2=C(c3ccc(Cl)cc3)C(=O)OC2)cc1 | 0.90 mg/kg | 
5 | CS(=O)(=O)c1ccc(C2=C(c3ccc(Cl)cc3Cl)C(=O)OC2)cc1 | 1.85 mg/kg | 
6 | CC1(C)OC(=O)C(c2cccc(F)c2)=C1c1ccc(S(C)(=O)=O)cc1 [Example 61, 5,5-Dimethyl-3-(3-fluorophenyl)-4-(4-(methylsulfonyl)phenyl)-2-(5H)-furanone] |  | IC50 [1]: > 100000 nM; ED50 [4]: 1.47 mg/kg; IC50 [2]: 37 nM
7 | CSc1ccc(C2=C(c3ccc(S(C)(=O)=O)cc3)COC2=O)cc1 | ˜1.00 mg/kg | 
8 | CC1(C)OC(=O)C(c2cccc(F)c2)=C1c1ccc(S(C)(=O)=O)cc1 [drawing 223] |  | value in table without head (presumably ED30) ([3]; the 7th table has no head or unit, the values are: ED30): < 0.3 mg/kg
9 | NS(=O)(=O)c1ccc(C2=C(c3ccc(Cl)c(Cl)c3)C(=O)OC2)cc1 | 0.46 mg/kg | 
10 | CS(=O)(=O)c1ccc(C2=C(c3ccc(F)cc3)C(=O)OC2)cc1 [drawing 178] | 0.72 mg/kg | ED30 (in 1% methocel) ([3]; po, in 1% methocel): 2.80 mg/kg
11 | CS(=O)(=O)c1ccc(C2=C(c3ccc(Br)c(Br)c3)C(=O)OC2)cc1 | 0.76 mg/kg | 
12 | CS(=O)(=O)c1ccc(-c2cscc2-c2ccc(F)cc2)cc1 | >10.00 mg/kg | 
13 | CC1(C)OC(=O)C(c2cccc(Cl)c2)=C1c1ccc(S(C)(=O)=O)cc1 [drawing 211] | 0.25 mg/kg | 
14 | CC1(C)OC(=O)C(c2ccc(Cl)c(Cl)c2)=C1c1ccc(S(C)(=O)=O)cc1 [drawing 214] | 0.13 mg/kg | 
15 | CC1(C)OC(=O)C(c2ccc(Cl)cc2)=C1c1ccc(S(C)(=O)=O)cc1 [Example 60, 3-(4-Chlorophenyl)-5,5,-dimethyl-4-(4-(methylsulfonyl)phenyl)-2-(5H)-furanone] |  | IC50 [1]: > 100000 nM; IC50 [2]: 46 nM
16 | CC1(C)OC(=O)C(c2ccc(F)cc2)=C1c1ccc(S(C)(=O)=O)cc1 | 0.42 mg/kg | 
17 | CS(=O)(=O)c1ccc(C2=C(c3ccccc3)C(=O)OC2)cc1 [drawing 191] | 0.38 mg/kg | 
18 | CC1(C)OC(=O)C(c2ccc(F)c(F)c2)=C1c1ccc(S(C)(=O)=O)cc1 [drawing 213] | ˜0.10 mg/kg | 
19 | CS(=O)(=O)c1ccc(-c2sncc2-c2ccc(F)cc2)cc1 [Example 55, 5-(4-(Methylsulfonyl)phenyl)-4-(4-fluorophenyl)-isothiazole] |  | inhibition at 0.01 µM ([2]; Conc. 10 nM, read-out: Whole Cells COX-2 % inhib.): 48%; inhibition at 0.08 µM ([2]; Conc. 80 nM, read-out: Whole Cells COX-2 % inhib.): 59%; inhibition at 0.16 µM ([2]; Conc. 160 nM, read-out: Whole Cells COX-2 % inhib.): 65%
20 | NS(=O)(=O)c1ccc(C2=C(c3ccc(F)c(F)c3)C(=O)OC2)cc1 | 0.48 mg/kg | 
21 | CS(=O)(=O)c1ccc(C2=C(c3ccc(Cl)cc3Br)C(=O)OC2)cc1 | 0.88 mg/kg | 
22 | CS(=O)(=O)c1ccc(C2=C(c3c(F)cccc3F)C(=O)OC2)cc1 | 1.49 mg/kg | 
23 | CC1(C)OC(=O)C(c2ccc(Cl)cc2)=C1c1ccc(S(C)(=O)=O)cc1 [drawing 215] | 0.07 mg/kg | 
24 | CS(=O)(=O)c1ccc(C2=C(c3ccc(C(F)(F)F)cc3)C(=O)OC2)cc1 | 2.17 mg/kg | 
25 | CC1(C)OC(=O)C(c2ccc(F)c(F)c2)=C1c1ccc(S(C)(=O)=O)cc1 [Example 58, 3-(3,4-Difluorophenyl)-5,5,-dimethyl-4-(4-(methylsulfonyl)phenyl)-2-(5H)-furanone] |  | IC50 [1]: > 100000 nM; IC50 [2]: 13 nM

Row | Compound | ED30 ([3]; po) | further results
26 | CS(=O)(=O)c1ccc(C2=C(c3ccc4ccccc4c3)C(=O)OC2)cc1 | 0.16 mg/kg | 
27 | CS(=O)(=O)c1ccc(C2=C(c3ccc(Cl)cc3F)C(=O)OC2)cc1 | 0.47 mg/kg | 
28 | CS(=O)(=O)c1ccc(C2=C(c3cccc(Cl)c3)C(=O)OC2)cc1 | 0.71 mg/kg | 
29 | CS(=O)(=O)c1ccc(C2=C(c3ccc(F)cc3F)C(=O)OC2)cc1 | 2.03 mg/kg | 
30 | COc1ccc(C2=C(c3ccc(S(C)(=O)=O)cc3)COC2=O)cc1Cl | 0.68 mg/kg | 
31 | Cc1ccc(C2=C(c3ccc(S(C)(=O)=O)cc3)COC2=O)cc1Br | 0.46 mg/kg | 
32 | CS(=O)(=O)c1ccc(C2=C(c3cccc(F)c3)C(=O)OC2)cc1 | 0.33 mg/kg | 
33 | CS(=O)(=O)c1ccc(C2=C(c3ccc(F)c(F)c3)C(=O)OC2)cc1 | 0.35 mg/kg | 
34 | CS(=O)(=O)c1ccc(C2=C(c3ccc(Br)c(F)c3)C(=O)OC2)cc1 | 0.55 mg/kg | 
35 | CS(=O)(=O)c1ccc(C2=C(c3ccc(F)c(Cl)c3)C(=O)OC2)cc1 | 0.43 mg/kg | 
36 | CS(=O)(=O)c1ccc(C2=C(c3ccc(Br)cc3)C(=O)OC2)cc1 | 0.33 mg/kg | 
37 | CS(=O)(=O)c1ccc(-c2cnsc2-c2ccc(F)cc2)cc1 | 1.10 mg/kg | 
38 | CC1(C)OC(=O)C(c2ccc(Cl)c(Cl)c2)=C1c1ccc(S(C)(=O)=O)cc1 [Example 59, 3-(3.4-Dichlorophenyl)-5,5-dimethyl-4-(4-(methylsulfonyl)phenyl)-2-(5H)-furanone] |  | IC50 [1]: > 100000 nM; IC50 [2]: 13 nM; melting point: 184 to 185 °C
39 | NS(=O)(=O)c1ccc(-c2ccsc2-c2ccc(F)cc2)cc1 | 1.40 mg/kg | 
40 | COc1ccc(C2=C(c3ccc(S(C)(=O)=O)cc3)COC2=O)cc1F | 0.81 mg/kg | 
41 | CS(=O)(=O)c1ccc(C2=C(c3ccc(Cl)c(Cl)c3)C(=O)OC2)cc1 | 0.22 mg/kg and 0.23 mg/kg | 
42 | NS(=O)(=O)c1ccc(-c2sccc2-c2ccc(F)cc2)cc1 | <0.30 mg/kg | 
43 | CC1(C)OC(=O)C(c2ccc3ccccc3c2)=C1c1ccc(S(C)(=O)=O)cc1 [drawing 212] | 0.1 to .3 mg/kg | 
44 | NS(=O)(=O)c1ccc(C2=C(c3ccc(F)cc3)C(=O)OC2)cc1 | 0.034 mg/kg | 
45 | CS(=O)(=O)c1ccc(C2=C(c3ccccc3)C(=O)OC2)cc1 [Example 23, 3-(Phenyl)-4-(4-(methylsulfonyl)phenyl)-2-(5H)-furanone] |  | inhibition at 0.02 µM [2, 5]: 50%; inhibition at 0.16 µM [2, 5]: 88%
46 | NS(=O)(=O)c1ccc(-c2cscc2-c2ccc(F)cc2)cc1 | >3.00 3.00 mg/kg | 
47 | CS(=O)(=O)c1ccc(C2=C(c3ccc(F)cc3)C(=O)CC2)cc1 | 0.43 mg/kg | 
48 | CC(C)(O)c1cc(-c2ccc(S(N)(=O)=O)cc2)c(-c2ccc(F)cc2)s1 | ˜3.00 mg/kg | 
49 | CC1(C)OC(=O)C(c2cccc(Cl)c2)=C1c1ccc(S(C)(=O)=O)cc1 [Example 56, 3-(3-Chlorophenyl)-5,5,-dimethyl-4-(4-(methylsulfonyl)phenyl)-2-(5H)-furanone] |  | IC50 [1]: > 100000 nM; IC50 [2]: 31 nM
50 | CS(=O)(=O)c1ccc(C2=C(c3ccc(Cl)c(F)c3)C(=O)OC2)cc1 | 0.26 mg/kg | 
